Assay results reported in the supplement of paper PMC8967900.

Assays:
Test in all cases: selective drug sensitivity score (sDSS, relative to normal bone marrow) (sDSS (score)); higher = more potent and effective on the cell line relative to normal bone marrow cells
Details in all cases: 72 h
REH = tested on: REH
TMD5 = tested on: TMD5
PF-382 = tested on: PF-382
HPB-ALL = tested on: HPB-ALL
COG-LL-319h = tested on: COG-LL-319h
MOLT-14 = tested on: MOLT-14
NALM-6 = tested on: NALM-6
ALL-SIL = tested on: ALL-SIL
MHH-CALL-3 = tested on: MHH-CALL-3
CCRF-HSB2 = tested on: CCRF-HSB2
RPMI-8402 = tested on: RPMI-8402
MOLT-16 = tested on: MOLT-16
NALM-16 = tested on: NALM-16
COG-LL-355h = tested on: COG-LL-355h
MN-60 = tested on: MN-60
697 = tested on: 697
CCRF-CEM = tested on: CCRF-CEM
KASUMI-2 = tested on: KASUMI-2
P30-OHKUBO = tested on: P30-OHKUBO
MHH-CALL-2 = tested on: MHH-CALL-2
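Note: ALL cell lines in 384-well plates, five doses spanning 10,000-fold, each plate scaled between vehicle and 100 µmol/L benzalkonium chloride controls, sDSS an adapted area-under-curve metric.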

Row | Compound | selective drug sensitivity score (REH) | selective drug sensitivity score (TMD5) | selective drug sensitivity score (PF-382) | selective drug sensitivity score (HPB-ALL) | selective drug sensitivity score (COG-LL-319h) | selective drug sensitivity score (MOLT-14) | selective drug sensitivity score (NALM-6) | selective drug sensitivity score (ALL-SIL) | selective drug sensitivity score (MHH-CALL-3) | selective drug sensitivity score (CCRF-HSB2) | selective drug sensitivity score (RPMI-8402) | selective drug sensitivity score (MOLT-16) | selective drug sensitivity score (NALM-16) | selective drug sensitivity score (COG-LL-355h) | selective drug sensitivity score (MN-60) | selective drug sensitivity score 697 | selective drug sensitivity score (CCRF-CEM) | selective drug sensitivity score (KASUMI-2) | selective drug sensitivity score (P30-OHKUBO) | selective drug sensitivity score (MHH-CALL-2)
1 | O[C@H]1CC[C@H](Nc2ncc3nc(Nc4c(F)cc(F)cc4F)n([C@H]4CCOC4)c3n2)CC1 [Tanzisertib] (top concentration 10000 nM) | 0 | 0 | 0 | 0 | 0 | 0 | 0 | 0 | 0 | 0.2 | 0 | 0 | 1.2 | 0.8 | 0 | 0 | 0 | 0 | 0 | 0.9
2 | COc1cccc2c1C(=O)c1c(O)c3c(c(O)c1C2=O)C[C@@](O)(C(C)=O)C[C@@H]3O[C@H]1C[C@H](N)[C@H](O)[C@H](C)O1 [Daunorubicin] (top concentration 1000 nM) | 6.16 | 1.86 | 1.26 | -1.64 | 16.4 | 9.66 | 6.36 | 1.26 | 16.4 | 12.5 | 8.96 | 13.5 | -2.14 | 5.06 | -0.34 | 9.06 | 9.16 | 10.8 | 6.46 | 6.16
3 | Cc1cc(OCc2nnc(SC3CCCC3)n2-c2cccnc2)ccc1-c1ccc(S(C)(=O)=O)cc1 [NMS-873] (top concentration 10000 nM) | 12 | 2.26 | 11.8 | 6.26 | 10.3 | 7.16 | 7.36 | 8.96 | 6.06 | 10.5 | 21.3 | 17.6 | 2.86 | 4.56 | 12.1 | 14.1 | 1.46 | 4.26 | 4.66 | 6.76
4 | Nc1nc(OCc2cc(Br)cs2)c2[nH]cnc2n1 [Lomeguatrib] (top concentration 10000 nM) | 1.2 | 0 | 0 | 0.1 | 0 | 0 | 0 | 0 | 0 | 0 | 0 | 0 | 0 | 1 | 0 | 0.4 | 0 | 0 | 0 | 0
5 | CO[C@H]1C[C@@H]2CC[C@@H](C)[C@@](O)(O2)C(=O)C(=O)N2CCCC[C@H]2C(=O)O[C@H]([C@H](C)C[C@@H]2CC[C@@H](OP(C)(C)=O)[C@H](OC)C2)CC(=O)[C@H](C)/C=C(\C)[C@@H](O)[C@@H](OC)C(=O)[C@H](C)C[C@H](C)/C=C/C=C/C=C/1C [Ridaforolimus] (top concentration 100 nM) | 6.96 | -4.84 | 5.86 | -4.84 | 4.76 | -2.44 | -4.84 | 3.06 | 3.96 | 7.46 | -1.44 | 10.6 | -0.04 | -2.14 | 5.16 | 12.5 | 7.36 | 8.66 | 4.36 | -2.24
6 | CO[C@H]1C[C@@H]2CC[C@@H](C)[C@@](O)(O2)C(=O)C(=O)N2CCCC[C@H]2C(=O)O[C@H]([C@H](C)C[C@@H]2CC[C@@H](OC(=O)C(C)(CO)CO)[C@H](OC)C2)CC(=O)[C@H](C)/C=C(\C)[C@@H](O)[C@@H](OC)C(=O)[C@H](C)C[C@H](C)/C=C/C=C/C=C/1C [Temsirolimus] (top concentration 100 nM) | 3.96 | -5.04 | 7.46 | -4.44 | 4.66 | -4.24 | -2.34 | 2.76 | 7.36 | 7.76 | -1.04 | 11.7 | 0.16 | -2.54 | 2.46 | 14.9 | 7.76 | 6.46 | 6.36 | -0.34
7 | O=C(c1cc(Cc2n[nH]c(=O)c3ccccc23)ccc1F)N1CCN(C(=O)C2CC2)CC1 [Olaparib] (top concentration 10000 nM) | 1.48 | 4.48 | -0.52 | -1.32 | 11.7 | 10.4 | 1.48 | -0.02 | 21.9 | 3.98 | -0.02 | 9.08 | -3.42 | 3.38 | -2.42 | 6.78 | 3.78 | 4.78 | 2.98 | 8.88
8 | CS(=O)(=O)N1CCN(Cc2cc3nc(-c4cccc5[nH]ncc45)nc(N4CCOCC4)c3s2)CC1 [Pictilisib] (top concentration 10000 nM) | 10.5 | 2.56 | 6.26 | -0.04 | 5.56 | -2.04 | 12.9 | 4.56 | 10.6 | 4.56 | 6.26 | 4.16 | 4.66 | 12 | 2.96 | 7.36 | 5.36 | 8.46 | 13 | 12.3
